{"source": "ChEMBL document CHEMBL1201862", "about": "“PubChem BioAssay data set” (2004)", "key": {"[1]": {"assay": "HepG2 cell cytotoxicity, dose response, cytotoxicity control for non-replicating M. tuberculosis project (AID 489018)", "assay_type": "functional", "settings": "Mycobacterium tuberculosis"}, "[2]": {"target": "T1, Calpain-2 catalytic subunit (Sus scrofa, UniProt P43367)", "T1 sequence (P43367 whole entry)": "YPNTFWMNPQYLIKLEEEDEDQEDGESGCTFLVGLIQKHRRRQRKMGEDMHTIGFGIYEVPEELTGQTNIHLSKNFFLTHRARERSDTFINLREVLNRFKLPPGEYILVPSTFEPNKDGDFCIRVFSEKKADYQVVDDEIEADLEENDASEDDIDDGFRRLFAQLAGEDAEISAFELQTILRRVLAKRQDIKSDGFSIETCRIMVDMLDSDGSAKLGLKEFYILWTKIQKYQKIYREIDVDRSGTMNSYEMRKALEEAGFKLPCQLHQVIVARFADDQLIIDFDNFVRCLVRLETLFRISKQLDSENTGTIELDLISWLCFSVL", "assay": "pig calpain II inhibitor potency, dose response, biochemical, fluorogenic peptide substrate (AID 1420)", "assay_type": "functional"}, "[3]": {"assay": "inhibitors of intracellular T. cruzi replication, confirmation, NIH3T3 host cells, beta-gal luminescence (AID 2044);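 also: intracellular parasites grown in NIH/3T3 mouse fibroblasts as host cells; luminescent beta-galactosidase reporter signal from transgenic T. cruzi replicating inside host cells; inhibitors lower the luminescence signal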", "assay_type": "functional, cell-based"}, "Streptococcus": {"system": "Streptococcus", "assay": "Group A Streptococcus viability loss, dose response, counter-screen for streptokinase expression inhibitor project, luminescence, BacTiterGlo (AID 1915);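 also: potency for reduction of bacterial viability or growth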", "assay_type": "functional, organism-based"}, "[4]": {"target": "T2, Zinc finger protein mex-5 (Caenorhabditis elegans, UniProt Q9XUB2)", "T2 sequence (Q9XUB2 whole entry)": "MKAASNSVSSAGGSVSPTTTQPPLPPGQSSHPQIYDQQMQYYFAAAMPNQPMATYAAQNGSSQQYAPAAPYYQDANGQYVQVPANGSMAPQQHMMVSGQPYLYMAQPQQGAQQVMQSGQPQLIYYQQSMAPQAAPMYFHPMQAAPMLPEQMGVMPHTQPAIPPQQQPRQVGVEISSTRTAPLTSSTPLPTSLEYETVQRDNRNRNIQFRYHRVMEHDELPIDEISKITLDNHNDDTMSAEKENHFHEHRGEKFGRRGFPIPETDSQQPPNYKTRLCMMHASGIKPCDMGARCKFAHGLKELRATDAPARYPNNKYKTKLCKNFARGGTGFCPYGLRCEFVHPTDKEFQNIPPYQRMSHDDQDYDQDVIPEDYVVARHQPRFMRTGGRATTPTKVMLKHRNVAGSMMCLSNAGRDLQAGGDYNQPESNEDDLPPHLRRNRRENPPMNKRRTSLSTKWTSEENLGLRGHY", "assay": "MEX-5/TCR-2 RNA interaction inhibitors, dose response, biochemical, C. elegans, fluorescence polarization (AID 1960)"}, "Bcl-2-related protein A1": {"target": "T3, Bcl-2-related protein A1 (Mus musculus, UniProt Q07440)", "T3 sequence (Q07440 whole entry)": "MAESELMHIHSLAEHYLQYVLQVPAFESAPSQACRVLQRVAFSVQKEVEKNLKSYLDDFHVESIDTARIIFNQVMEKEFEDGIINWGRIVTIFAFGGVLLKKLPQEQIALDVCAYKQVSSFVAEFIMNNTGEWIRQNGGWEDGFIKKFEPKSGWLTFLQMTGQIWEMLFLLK", "assay": "Bfl-1 inhibitors blocking BH3 peptide binding, confirmation, biochemical, TR-FRET, mouse Bfl-1 (AID 621);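 also: TR-FRET binding of GST-Bfl-1 to FITC-labelled Bid peptide via terbium antibody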"}, "[5]": {"target": "T4, RNA-binding protein pos-1 (Caenorhabditis elegans, UniProt G5EF15)", "T4 sequence (G5EF15 whole entry)": "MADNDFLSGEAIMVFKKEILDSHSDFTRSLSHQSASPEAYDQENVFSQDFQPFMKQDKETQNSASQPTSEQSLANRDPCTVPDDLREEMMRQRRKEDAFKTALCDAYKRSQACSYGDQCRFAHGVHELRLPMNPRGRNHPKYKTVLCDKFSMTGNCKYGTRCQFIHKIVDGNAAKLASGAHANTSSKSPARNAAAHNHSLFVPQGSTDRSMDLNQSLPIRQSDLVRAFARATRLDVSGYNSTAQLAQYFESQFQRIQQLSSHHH", "assay": "inhibitors of POS-1/mex-3 RNA binding, dose response, biochemical, fluorescence polarization (AID 1964);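 also: purified POS-1 fused to maltose binding protein made in E. coli; potency of compounds blocking POS-1 binding to fluorescent RNA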"}, "[6]": {"assay": "inhibitors of SNCA 5'UTR-driven reporter translation, confirmation, H4 neuroglioma cells, luminescence (AID 1988)", "assay_type": "functional, cell-based"}, "[7]": {"assay": "inhibitors of clade B AD8 Env fusion, dose response, cell-based, cherry-pick (AID 652062);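 also: potency is for inhibitors of fusion seen as a drop in luminescence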", "assay_type": "functional"}, "Paired box protein Pax-8": {"target": "Paired box protein Pax-8 (Homo sapiens, UniProt Q06710)", "assay": "inhibitors of PAX8-driven TPO luciferase reporter, dose response, RMG-I cells, cherry-pick (AID 687027);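 also: luciferase reporter driven by Pax8 target thyroperoxidase promoter measured by SteadyGlo luminescence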", "assay_type": "functional, cell-based"}, "[8]": {"target": "Serine/threonine-protein kinase N2 (Homo sapiens, UniProt Q16513)", "sequence (Q16513 whole entry)": "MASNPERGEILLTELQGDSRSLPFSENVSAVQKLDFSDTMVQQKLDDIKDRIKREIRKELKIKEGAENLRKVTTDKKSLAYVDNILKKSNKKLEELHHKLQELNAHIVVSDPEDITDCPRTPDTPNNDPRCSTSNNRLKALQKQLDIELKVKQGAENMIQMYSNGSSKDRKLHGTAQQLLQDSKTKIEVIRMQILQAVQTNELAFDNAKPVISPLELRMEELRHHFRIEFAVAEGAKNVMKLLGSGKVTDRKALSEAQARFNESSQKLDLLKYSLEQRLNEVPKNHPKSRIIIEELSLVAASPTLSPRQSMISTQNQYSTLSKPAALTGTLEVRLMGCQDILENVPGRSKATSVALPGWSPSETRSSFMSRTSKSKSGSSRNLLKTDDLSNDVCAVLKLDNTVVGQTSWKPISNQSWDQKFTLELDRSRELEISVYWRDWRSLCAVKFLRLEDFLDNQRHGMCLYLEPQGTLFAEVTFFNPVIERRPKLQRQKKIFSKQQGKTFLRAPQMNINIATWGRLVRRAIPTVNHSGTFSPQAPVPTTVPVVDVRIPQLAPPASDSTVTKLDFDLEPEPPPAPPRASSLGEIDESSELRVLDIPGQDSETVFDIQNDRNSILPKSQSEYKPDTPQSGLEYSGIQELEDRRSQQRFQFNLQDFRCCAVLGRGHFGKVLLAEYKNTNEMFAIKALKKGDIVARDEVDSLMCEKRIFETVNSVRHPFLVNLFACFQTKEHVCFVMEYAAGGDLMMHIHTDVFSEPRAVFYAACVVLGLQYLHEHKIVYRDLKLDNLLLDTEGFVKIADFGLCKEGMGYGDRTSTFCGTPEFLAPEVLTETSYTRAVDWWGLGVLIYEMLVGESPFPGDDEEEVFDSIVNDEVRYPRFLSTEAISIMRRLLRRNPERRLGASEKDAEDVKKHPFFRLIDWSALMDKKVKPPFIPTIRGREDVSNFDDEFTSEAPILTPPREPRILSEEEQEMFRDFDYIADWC", "assay_type": "functional"}, "[9]": {"target": "Proto-oncogene tyrosine-protein kinase receptor Ret (Homo sapiens, UniProt P07949)", "assay_type": "functional"}, "[10]": {"target": "Mitogen-activated protein kinase kinase kinase kinase 2 (Homo sapiens, UniProt Q12851)", "assay_type": "functional"}, "[11]": {"target": "Inhibitor of nuclear factor kappa-B kinase subunit epsilon (Homo sapiens, UniProt Q14164)", "sequence (Q14164 whole entry)": "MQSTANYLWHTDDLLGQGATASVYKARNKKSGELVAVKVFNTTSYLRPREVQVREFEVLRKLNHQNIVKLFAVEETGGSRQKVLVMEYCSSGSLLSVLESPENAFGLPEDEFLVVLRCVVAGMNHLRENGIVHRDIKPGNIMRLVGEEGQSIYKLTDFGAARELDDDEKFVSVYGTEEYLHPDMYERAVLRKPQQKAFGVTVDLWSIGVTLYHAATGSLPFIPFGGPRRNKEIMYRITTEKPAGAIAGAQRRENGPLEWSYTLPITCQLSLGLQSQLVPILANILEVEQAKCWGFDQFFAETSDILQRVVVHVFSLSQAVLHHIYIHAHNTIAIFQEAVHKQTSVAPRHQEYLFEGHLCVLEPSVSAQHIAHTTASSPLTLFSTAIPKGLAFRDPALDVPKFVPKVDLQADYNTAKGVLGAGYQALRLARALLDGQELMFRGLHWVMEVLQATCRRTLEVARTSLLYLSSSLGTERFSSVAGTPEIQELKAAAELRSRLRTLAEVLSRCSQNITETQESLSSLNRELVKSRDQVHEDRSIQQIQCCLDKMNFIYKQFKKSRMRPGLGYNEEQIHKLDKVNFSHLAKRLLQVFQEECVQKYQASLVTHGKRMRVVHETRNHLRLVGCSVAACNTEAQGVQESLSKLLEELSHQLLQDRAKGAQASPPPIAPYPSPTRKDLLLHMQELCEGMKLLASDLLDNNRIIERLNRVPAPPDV", "assay": "Navigating the Kinome. Panel member name: IKBKE", "assay_type": "functional"}, "[12]": {"target": "Interleukin-1 receptor-associated kinase 1 (Homo sapiens, UniProt P51617)", "sequence (P51617 whole entry)": "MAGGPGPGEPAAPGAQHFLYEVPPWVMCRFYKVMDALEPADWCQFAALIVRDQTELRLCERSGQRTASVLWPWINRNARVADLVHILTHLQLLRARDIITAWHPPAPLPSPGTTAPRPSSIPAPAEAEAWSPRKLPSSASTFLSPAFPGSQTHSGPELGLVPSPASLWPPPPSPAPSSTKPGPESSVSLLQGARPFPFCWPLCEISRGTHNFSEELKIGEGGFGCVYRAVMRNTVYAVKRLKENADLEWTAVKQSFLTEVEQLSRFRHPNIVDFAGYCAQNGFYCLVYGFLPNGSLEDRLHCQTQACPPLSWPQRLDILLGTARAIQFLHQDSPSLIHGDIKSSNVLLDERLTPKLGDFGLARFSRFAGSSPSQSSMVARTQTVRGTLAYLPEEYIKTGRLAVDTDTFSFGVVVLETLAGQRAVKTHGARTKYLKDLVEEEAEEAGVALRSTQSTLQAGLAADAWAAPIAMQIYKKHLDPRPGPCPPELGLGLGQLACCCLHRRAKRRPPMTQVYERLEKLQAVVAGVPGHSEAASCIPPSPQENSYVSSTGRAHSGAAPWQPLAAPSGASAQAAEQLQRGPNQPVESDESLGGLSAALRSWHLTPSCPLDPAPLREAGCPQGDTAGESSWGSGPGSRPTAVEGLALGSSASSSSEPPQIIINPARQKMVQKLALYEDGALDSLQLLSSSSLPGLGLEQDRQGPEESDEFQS", "assay_type": "functional"}, "[13]": {"target": "Tyrosine-protein kinase BTK (Homo sapiens, UniProt Q06187)", "assay_type": "functional"}, "[14]": {"target": "Tyrosine-protein kinase Lck (Homo sapiens, UniProt P06239)", "assay_type": "functional"}, "[15]": {"target": "Leucine-rich repeat serine/threonine-protein kinase 2 (Homo sapiens, UniProt Q5S007)", "assay_type": "functional"}, "[16]": {"target": "Serine/threonine-protein kinase Chk2 (Homo sapiens, UniProt O96017)", "assay_type": "functional"}, "[17]": {"target": "Protein-tyrosine kinase 6 (Homo sapiens, UniProt Q13882)", "assay_type": "functional"}, "Beta-galactosidase": {"target": "Beta-galactosidase (Escherichia coli, UniProt Q8VNN2)", "sequence (Q8VNN2 whole entry)": "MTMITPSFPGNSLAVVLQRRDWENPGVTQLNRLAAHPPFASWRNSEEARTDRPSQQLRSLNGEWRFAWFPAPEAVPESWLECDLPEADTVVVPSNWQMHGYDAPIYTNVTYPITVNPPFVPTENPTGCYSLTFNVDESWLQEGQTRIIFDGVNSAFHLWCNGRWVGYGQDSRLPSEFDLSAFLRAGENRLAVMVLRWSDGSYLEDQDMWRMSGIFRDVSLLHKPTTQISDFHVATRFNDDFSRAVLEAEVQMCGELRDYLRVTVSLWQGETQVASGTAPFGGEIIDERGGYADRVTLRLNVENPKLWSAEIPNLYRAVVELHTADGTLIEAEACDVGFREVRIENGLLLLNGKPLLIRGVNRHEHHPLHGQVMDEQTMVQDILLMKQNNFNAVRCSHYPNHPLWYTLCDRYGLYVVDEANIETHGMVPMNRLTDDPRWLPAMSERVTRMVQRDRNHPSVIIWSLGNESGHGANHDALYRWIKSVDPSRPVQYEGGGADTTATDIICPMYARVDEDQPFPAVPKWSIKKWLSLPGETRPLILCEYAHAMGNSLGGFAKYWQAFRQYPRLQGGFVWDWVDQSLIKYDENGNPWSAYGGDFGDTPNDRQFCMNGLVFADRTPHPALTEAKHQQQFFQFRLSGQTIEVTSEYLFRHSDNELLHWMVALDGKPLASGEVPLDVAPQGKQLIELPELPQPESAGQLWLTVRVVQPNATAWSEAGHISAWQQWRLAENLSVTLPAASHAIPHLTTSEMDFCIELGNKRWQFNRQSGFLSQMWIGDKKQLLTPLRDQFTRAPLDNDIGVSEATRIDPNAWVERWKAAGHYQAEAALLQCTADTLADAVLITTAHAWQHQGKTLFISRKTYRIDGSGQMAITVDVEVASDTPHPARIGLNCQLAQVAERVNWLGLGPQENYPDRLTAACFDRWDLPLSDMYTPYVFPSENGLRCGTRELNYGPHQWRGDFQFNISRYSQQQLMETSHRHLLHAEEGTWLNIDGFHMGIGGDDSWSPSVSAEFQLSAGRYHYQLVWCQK", "assay_type": "functional"}, "[18]": {"target": "Dual specificity mitogen-activated protein kinase kinase 2 (Homo sapiens, UniProt P36507)", "assay": "Navigating the Kinome. Panel member name: MAP2K2", "assay_type": "functional"}, "[19]": {"target": "Platelet-derived growth factor receptor beta (Homo sapiens, UniProt P09619)", "assay_type": "functional"}, "[20]": {"target": "Calcium/calmodulin-dependent protein kinase type II subunit alpha (Homo sapiens, UniProt Q9UQM7)", "sequence (Q9UQM7 whole entry)": "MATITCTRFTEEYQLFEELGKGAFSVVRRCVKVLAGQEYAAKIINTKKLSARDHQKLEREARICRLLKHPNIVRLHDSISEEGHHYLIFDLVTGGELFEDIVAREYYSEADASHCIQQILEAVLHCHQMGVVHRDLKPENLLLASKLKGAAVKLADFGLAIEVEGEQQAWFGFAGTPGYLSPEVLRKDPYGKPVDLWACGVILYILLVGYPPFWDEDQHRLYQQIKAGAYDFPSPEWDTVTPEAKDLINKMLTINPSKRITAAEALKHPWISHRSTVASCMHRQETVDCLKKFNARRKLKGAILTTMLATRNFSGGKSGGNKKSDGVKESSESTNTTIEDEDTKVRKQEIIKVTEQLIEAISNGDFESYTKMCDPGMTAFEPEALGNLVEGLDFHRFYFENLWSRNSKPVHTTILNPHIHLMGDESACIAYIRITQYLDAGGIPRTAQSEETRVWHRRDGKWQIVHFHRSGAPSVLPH", "assay": "Navigating the Kinome. Panel member name: CAMK2A", "assay_type": "functional"}, "[21]": {"target": "Tyrosine-protein kinase Fer (Homo sapiens, UniProt P16591)", "sequence (P16591 whole entry)": "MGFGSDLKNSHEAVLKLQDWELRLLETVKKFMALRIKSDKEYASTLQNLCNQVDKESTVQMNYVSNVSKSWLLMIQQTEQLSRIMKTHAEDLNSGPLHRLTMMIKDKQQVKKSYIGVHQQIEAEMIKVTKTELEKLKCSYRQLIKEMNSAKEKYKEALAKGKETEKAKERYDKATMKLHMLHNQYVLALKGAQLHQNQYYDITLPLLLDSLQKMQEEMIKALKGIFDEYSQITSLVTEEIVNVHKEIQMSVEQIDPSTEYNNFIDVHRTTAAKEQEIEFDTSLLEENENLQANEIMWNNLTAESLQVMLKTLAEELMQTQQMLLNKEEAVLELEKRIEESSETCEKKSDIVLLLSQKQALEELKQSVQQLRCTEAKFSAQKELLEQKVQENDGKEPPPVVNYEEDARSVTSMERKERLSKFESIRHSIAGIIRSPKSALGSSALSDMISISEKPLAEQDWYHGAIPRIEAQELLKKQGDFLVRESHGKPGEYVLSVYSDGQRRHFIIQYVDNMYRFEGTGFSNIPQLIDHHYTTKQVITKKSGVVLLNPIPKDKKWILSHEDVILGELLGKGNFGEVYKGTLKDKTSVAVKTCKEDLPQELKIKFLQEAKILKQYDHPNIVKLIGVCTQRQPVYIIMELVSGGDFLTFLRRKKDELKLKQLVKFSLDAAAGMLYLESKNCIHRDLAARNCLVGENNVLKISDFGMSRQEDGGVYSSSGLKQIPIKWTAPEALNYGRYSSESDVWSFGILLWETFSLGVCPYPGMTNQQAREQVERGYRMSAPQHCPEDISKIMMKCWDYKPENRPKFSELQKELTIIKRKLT", "assay_type": "functional"}}, "note": "Activity calls are given as the source filed them."}
{"smiles": "COC(=O)CCS(=O)(=O)c1nc(-c2ccccc2)cc(C(F)(F)F)n1", "values": [{"measurement": "CC50", "setting": "[1]", "value": "19.4 µM (active)"}]}
{"smiles": "O=C(O)c1ccc(NC2=C(Cl)C(=O)c3ccccc3C2=O)cc1", "values": [{"measurement": "IC50", "setting": "[2]", "value": "10.8 µM (not active)"}, {"measurement": "EC50", "setting": "[3]", "value": "2.74 µM (active)"}]}
{"smiles": "O=C(O)c1ccc2c3c(ncnc13)-c1ccccc1C2=O", "values": [{"measurement": "EC50", "setting": "Streptococcus", "value": "> 150 µM (not active)"}, {"measurement": "EC50", "setting": "[4]", "value": "31.9 µM (active)"}, {"measurement": "IC50", "setting": "Bcl-2-related protein A1", "value": "> 100 µM (not active)"}, {"measurement": "EC50", "setting": "[5]", "value": "34.8 µM (active)"}, {"measurement": "EC50", "setting": "[6]", "value": "2.45 µM (active)"}]}
{"smiles": "CCOC(=O)c1c2c(n(Cc3ccccc3)c1C)C(=O)C(=O)c1ccccc1-2", "values": [{"measurement": "AC50", "setting": "[7]", "value": "10.6 µM (active)"}, {"measurement": "AC50", "setting": "Paired box protein Pax-8", "value": "1.98 µM (active)"}]}
{"smiles": "Cc1ccc2nccc(NC(=O)Nc3cccc(C(F)(F)F)n3)c2c1", "values": [{"measurement": "Ki", "setting": "[8]", "value": "> 7.94 µM (inactive)"}, {"measurement": "Ki", "setting": "[9]", "value": "> 2 µM (inactive)"}, {"measurement": "Ki", "setting": "[10]", "value": "> 6.31 µM (inactive)"}, {"measurement": "Ki", "setting": "[11]", "value": "> 3.16 µM (inactive)"}, {"measurement": "Ki", "setting": "[12]", "value": "> 7.94 µM (inactive)"}, {"measurement": "Ki", "setting": "[13]", "value": "> 1.26 µM (inactive)"}, {"measurement": "Ki", "setting": "[14]", "value": "> 2.51 µM (inactive)"}, {"measurement": "Ki", "setting": "[15]", "value": "> 2.51 µM (inactive)"}, {"measurement": "Ki", "setting": "[16]", "value": "> 1.58 µM (inactive)"}, {"measurement": "Ki", "setting": "[17]", "value": "0.398 µM (active)"}]}
{"smiles": "Cc1c(/N=C2\\C=CC(=O)c3ccccc32)c(=O)n(-c2ccccc2)n1C", "values": [{"measurement": "EC50", "setting": "Beta-galactosidase", "value": "> 31.5 µM (inactive)"}]}
{"smiles": "COc1cc2c(cc1F)C(c1ccccc1Cl)=Nc1c(n[nH]c1C)N2", "note": "[RG-1530]", "values": [{"measurement": "Ki", "setting": "[18]", "value": "2.51 µM (active)"}, {"measurement": "Ki", "setting": "[19]", "value": "0.0501 µM (active)"}, {"measurement": "Ki", "setting": "[20]", "value": "> 6.31 µM (inactive)"}, {"measurement": "Ki", "setting": "[21]", "value": "0.126 µM (active)"}]}
